According to patent US12466800B2, “N-((1,2,3,5,6,7-hexahydro-S-indacen-4-yl)carbamoyl)-4, 5, 6, 7-tetrahydrobenzofuran-2-sulfonamide derivatives and related compounds as NLPR3 modulators for the treatment of multiple sclerosis (MS)” (Zomagen Biosciences Ltd, priority 2019, dated 2025):

These molecules were tested on IL-1b (assay: Mouse BMDM IL-1b Assay). Details: Macrophage; mouse bone marrow derived macrophages (C57BL6); 200 ng/mL LPS 3 h, compound 30 min, 5 mM ATP 45 min; IL-1b ELISA of supernatant.
Assay type: cell-based
Description: Example 20: Mouse BMDM IL-1b Assay
Mouse bone marrow cells from C57BL6 tibia and femur were culture in complete Isocov's Media supplemented with 20 ng/mL MCSF (BMDM media) at a density of 50 million cells/15 cm Petri dish. Fresh media was changed every 3 days, and bone marrow derived macrophages were collected, washed, and counted on day 7. Cells were seeded into 96 well plates at a density of 5×10^4 cells per well in 100 uL of BMDM media and cultured overnight. The cells were stimulated at 37° C. with 200 ng/mL Ultrapure LPS-B5 for 3 hours before pre-diluted compounds were added. 30 minutes after compound addition, 5 mM ATP was added for the secondary stimulation for 45 minutes. After stimulation, the plates were briefly spun down, and 50 uL of supernatant was harvested from each well. ELISA for mouse IL-1b was performed with 1:10 and 1:100 diluted supernatant using pre-coated kits. IL-1b concentrations were calculated based on pre-titrated standards, and compound inhibition IC50 is generated using the Levenberg Marquardt damped lease-square method.

IC50 [nM] | SMILES
100 to 1000 | CC(C)c1c(F)c(Cl)c(F)c(C(C)C)c1NC(=O)NS(=O)(=O)c1cc2c(o1)CCC/C2=N\O [Compound 101, (E)-N-((4-chloro-3,5-difluoro-2,6-diisopropylphenyl)carbamoyl)-4-(hydroxyimino)-4,5,6,7-tetrahydrobenzofuran-2-sulfonamide]
< 100 | Cc1c(S(=O)(=O)NC(=O)Nc2c3c(cc4c2CCC4)CCC3)oc2c1C(O)CCC2 (stereo not drawn) [Compound 92, N-((1,2,3,5,6,7-hexahydro-s-indacen-4-yl)carbamoyl)-4-hydroxy-3-methyl-4,5,6,7-tetrahydrobenzofuran-2-sulfonamide]
< 100 | CC1(C)Cc2oc(S(=O)(=O)NC(=O)Nc3c4c(cc5c3CCC5)CCC4)cc2C(O)C1 (stereo not drawn) [Compound 22, N-((1,2,3,5,6,7-hexahydro-s-indacen-4-yl)carbamoyl)-4-hydroxy-6,6-dimethyl-4,5,6,7-tetrahydrobenzofuran-2-sulfonamide]
100 to 1000 | CC1CC(=NO)c2cc(S(=O)(=O)NC(=O)Nc3c4c(cc5c3CCC5)CCC4)oc2C1 (stereo not drawn) [Compound 48, N-((1,2,3,5,6,7-hexahydro-s-indacen-4-yl)carbamoyl)-4-(hydroxyimino)-6-methyl-4,5,6,7-tetrahydrobenzofuran-2-sulfonamide]
100 to 1000 | Cc1c(S(=O)(=O)NC(=O)Nc2c3c(cc4c2CCC4)CCC3)oc2c1/C(=N\O)CCC2 [Compound 99, (Z)-N-((1,2,3,5,6,7-hexahydro-s-indacen-4-yl)carbamoyl)-4-(hydroxyimino)-3-methyl-4,5,6,7-tetrahydrobenzofuran-2-sulfonamide]
100 to 1000 | CC(C)c1cc(F)cc(C(C)C)c1NC(=O)NS(=O)(=O)c1cc2c(o1)CCCCC2(C)O (stereo not drawn) [Compound 121, N-((4-fluoro-2,6-diisopropylphenyl)carbamoyl)-4-hydroxy-4-methyl-5,6,7,8-tetrahydro-4H-cyclohepta[b]furan-2-sulfonamide]
100 to 1000 | CC(C)c1cc(Cl)cc(C(C)C)c1NC(=O)NS(=O)(=O)c1cc2c(o1)CCCC2O (stereo not drawn) [Compound 61, N-((4-chloro-2,6-diisopropylphenyl)carbamoyl)-4-hydroxy-4,5,6,7-tetrahydrobenzofuran-2-sulfonamide]
100 to 1000 | CN1CCc2sc(S(=O)(=O)NC(=O)Nc3c4c(cc5c3CCC5)CCC4)cc2C1=O [Compound 114, N-((1,2,3,5,6,7-hexahydro-s-indacen-4-yl)carbamoyl)-5-methyl-4-oxo-4,5,6,7-tetrahydrothieno[3,2-c]pyridine-2-sulfonamide]
100 to 1000 | CC1(C)CC(=O)c2cc(S(=O)(=O)NC(=O)Nc3c4c(cc5c3CCC5)CCC4)oc2C1 [Compound 21, N-((1,2,3,5,6,7-hexahydro-s-indacen-4-yl)carbamoyl)-6,6-dimethyl-4-oxo-4,5,6,7-tetrahydrobenzofuran-2-sulfonamide]
100 to 1000 | CC1(C)CCc2oc(S(=O)(=O)NC(=O)Nc3c4c(cc5c3CCC5)CCC4)cc2C1=O [Compound 13, N-((1,2,3,5,6,7-hexahydro-s-indacen-4-yl)carbamoyl)-5,5-dimethyl-4-oxo-4,5,6,7-tetrahydrobenzofuran-2-sulfonamide]
100 to 1000 | CC(C)c1cccc(C(C)C)c1NC(=O)NS(=O)(=O)c1cc2c(o1)CCCC2O (stereo not drawn) [Compound 59, N-((2,6-diisopropylphenyl)carbamoyl)-4-hydroxy-4,5,6,7-tetrahydrobenzofuran-2-sulfonamide]
100 to 1000 | CC1Cc2oc(S(=O)(=O)NC(=O)Nc3c4c(cc5c3CCC5)CCC4)cc2C(O)C1 (stereo not drawn) [Compound 18, N-((1,2,3,5,6,7-hexahydro-s-indacen-4-yl)carbamoyl)-4-hydroxy-6-methyl-4,5,6,7-tetrahydrobenzofuran-2-sulfonamide]
< 100 | CC1(O)CCCCc2oc(S(=O)(=O)NC(=O)Nc3c4c(c(Br)c5c3CCC5)CCC4)cc21 (stereo not drawn) [Compound 108, N-((8-bromo-1,2,3,5,6,7-hexahydro-s-indacen-4-yl)carbamoyl)-4-hydroxy-4-methyl-5,6,7,8-tetrahydro-4H-cyclohepta[b]furan-2-sulfonamide]
100 to 1000 | CC(C)c1cc(Cl)cc(C(C)C)c1NC(=O)NS(=O)(=O)c1cc2c(o1)CCC/C2=N/O [Compound 77, (Z)-N-((4-chloro-2,6-diisopropylphenyl)carbamoyl)-4-(hydroxyimino)-4,5,6,7-tetrahydrobenzofuran-2-sulfonamide]
< 100 | O=C(Nc1c2c(c(Cl)c3c1CCC3)CCC2)NS(=O)(=O)c1cc2c(o1)CCC/C2=N/O [Compound 83, (Z)-N-((8-chloro-1,2,3,5,6,7-hexahydro-s-indacen-4-yl)carbamoyl)-4-(hydroxyimino)-4,5,6,7-tetrahydrobenzofuran-2-sulfonamide]
100 to 1000 | CC(C)c1ccc(F)c(C(C)C)c1NC(=O)NS(=O)(=O)c1cc2c(o1)CCCCC2(C)O (stereo not drawn) [Compound 110, N-((3-fluoro-2,6-diisopropylphenyl)carbamoyl)-4-hydroxy-4-methyl-5,6,7,8-tetrahydro-4H-cyclohepta[b]furan-2-sulfonamide]
< 100 | CN1CCCc2oc(S(=O)(=O)NC(=O)Nc3c4c(cc5c3CCC5)CCC4)cc2C1 [Compound 87, N-((1,2,3,5,6,7-hexahydro-s-indacen-4-yl)carbamoyl)-5-methyl-5,6,7,8-tetrahydro-4H-furo[3,2-c]azepine-2-sulfonamide]
< 100 | O=C(Nc1c2c(c(F)c3c1CCC3)CCC2)NS(=O)(=O)c1cc2c(o1)CCCC2O (stereo not drawn) [Compound 46, N-((8-fluoro-1,2,3,5,6,7-hexahydro-s-indacen-4-yl)carbamoyl)-4-hydroxy-4,5,6,7-tetrahydrobenzofuran-2-sulfonamide]
< 100 | CC(C)c1cc(F)cc(C(C)C)c1NC(=O)NS(=O)(=O)c1cc2c(o1)CCCC2(C)O (stereo not drawn) [Compound 64, N-((4-fluoro-2,6-diisopropylphenyl)carbamoyl)-4-hydroxy-4-methyl-4,5,6,7-tetrahydrobenzofuran-2-sulfonamide]
100 to 1000 | N#Cc1c2c(c(NC(=O)NS(=O)(=O)c3cc4c(o3)CCCC4O)c3c1CCC3)CCC2 (stereo not drawn) [Compound 54, N-((8-cyano-1,2,3,5,6,7-hexahydro-s-indacen-4-yl)carbamoyl)-4-hydroxy-4,5,6,7-tetrahydrobenzofuran-2-sulfonamide]
100 to 1000 | O=C(O)CCC1(O)CCCc2oc(S(=O)(=O)NC(=O)Nc3c4c(cc5c3CCC5)CCC4)cc21 (stereo not drawn) [Compound 126, 3-(2-(N-((1,2,3,5,6,7-hexahydro-s-indacen-4-yl)carbamoyl)sulfamoyl)-4-hydroxy-4,5,6,7-tetrahydrobenzofuran-4-yl)propanoic acid]
< 100 | CC1(O)CCCc2oc(S(=O)(=O)NC(=O)Nc3c4c(c(Cl)c5c3CCC5)CCC4)cc21 (stereo not drawn) [Compound 44, N-((8-chloro-1,2,3,5,6,7-hexahydro-s-indacen-4-yl)carbamoyl)-4-hydroxy-4-methyl-4,5,6,7-tetrahydrobenzofuran-2-sulfonamide]
< 100 | CCC1(O)CCCc2oc(S(=O)(=O)NC(=O)Nc3c4c(cc5c3CCC5)CCC4)cc21 (stereo not drawn) [Compound 45, 4-ethyl-N-((1,2,3,5,6,7-hexahydro-s-indacen-4-yl)carbamoyl)-4-hydroxy-4,5,6,7-tetrahydrobenzofuran-2-sulfonamide]
< 100 | CN1CCc2oc(S(=O)(=O)NC(=O)Nc3c4c(cc5c3CCC5)CCC4)cc2C1 [Compound 115, N-((1,2,3,5,6,7-hexahydro-s-indacen-4-yl)carbamoyl)-5-methyl-4,5,6,7-tetrahydrofuro[3,2-c]pyridine-2-sulfonamide]
< 100 | CC(C)c1ccc(F)c(C(C)C)c1NC(=O)NS(=O)(=O)c1cc2c(o1)CCCC2(C)O (stereo not drawn) [Compound 68, N-((3-fluoro-2,6-diisopropylphenyl)carbamoyl)-4-hydroxy-4-methyl-4,5,6,7-tetrahydrobenzofuran-2-sulfonamide]
100 to 1000 | CC(C)c1ccc(Cl)c(C(C)C)c1NC(=O)NS(=O)(=O)c1cc2c(o1)CCC/C2=N/O [Compound 79, (Z)-N-((3-chloro-2,6-diisopropylphenyl)carbamoyl)-4-(hydroxyimino)-4,5,6,7-tetrahydrobenzofuran-2-sulfonamide]
100 to 1000 | CC(C)c1c(F)c(Cl)c(F)c(C(C)C)c1NC(=O)NS(=O)(=O)c1cc2c(o1)CCCC2(C)O (stereo not drawn) [Compound 103, N-((4-chloro-3,5-difluoro-2,6-diisopropylphenyl)carbamoyl)-4-hydroxy-4-methyl-4,5,6,7-tetrahydrobenzofuran-2-sulfonamide]
100 to 1000 | O=C(Nc1c2c(c(Cl)c3c1CCC3)CCC2)NS(=O)(=O)c1cc2c(o1)CCC/C2=N\O [Compound 96, (E)-N-((8-chloro-1,2,3,5,6,7-hexahydro-s-indacen-4-yl)carbamoyl)-4-(hydroxyimino)-4,5,6,7-tetrahydrobenzofuran-2-sulfonamide]
100 to 1000 | CC1(O)CCCc2oc(S(=O)(=O)NC(=O)Nc3c4c(c(C#N)c5c3CCC5)CCC4)cc21 (stereo not drawn) [Compound 53, N-((8-cyano-1,2,3,5,6,7-hexahydro-s-indacen-4-yl)carbamoyl)-4-hydroxy-4-methyl-4,5,6,7-tetrahydrobenzofuran-2-sulfonamide]
100 to 1000 | CCOC(=O)C#CC1(O)CCCc2oc(S(=O)(=O)NC(=O)Nc3c4c(cc5c3CCC5)CCC4)cc21 (stereo not drawn) [Compound 105, ethyl 3-(2-(N-((1,2,3,5,6,7-hexahydro-s-indacen-4-yl)carbamoyl)sulfamoyl)-4-hydroxy-4,5,6,7-tetrahydrobenzofuran-4-yl)propiolate]
